What was measured:
[1] = tested on: NGF differentiated PC12 cells; test: Survival of NGF differentiated PC12 cells after apoptosis initiating insult (counting intact nuclei); assay type: cell-based
Description: PC12 cells (ATCC, Manassas, Md.) were propagated in minimum essential medium (MEM) containing 10% horse serum, 5% fetal bovine serum, 2 mM L-glutamine, 50 units/ml penicillin, and 50 μg/ml streptomycin (MEM with serum, MIS), all purchased from Life Technologies (Rockville, Md.). The cells were grown on 24 well plates (8×10^4 cells/well) for counting of intact nuclei as an estimate of survival, poly-L-lysine treated coverslips (1×10^4 cells/coverslip) for imaging with epiflorescence microscopy or laser confocal scanning microscopy (LCSM) or 100 mm dishes (1×10^6 cells/plate) for protein chemistry. The cells were differentiated for 6 days in M/S supplemented with 100 ng/ml 7S NGF (Upstate Biotech., Lake Placid, N.Y.). MEM with serum and NGF is abbreviated as M/S+N (see (Tatton et al., 1994, J. Neurochemistry, 63:1572-1575; Wadia et al., J. Neuroscience, 1998, 18: 932-947; Carlile et al., 2000, Molecular Pharmacology, 57:2-12) for further details of culture and treatment). Serum and NGF Withdrawal: Following incubation for 6 days in MEM with serum and NGF, cells underwent three successive washes in Hanks' Balanced Salt Solution (HBSS; Life Technologies, Rockville, Md.) to remove NGF and serum-borne trophic agents and then were replaced into MEM with serum and NGF for controls or into MEM without serum and NGF to induce apoptosis by serum and NGF withdrawal. C2-Ceramide, Rotenone, Peroxide, and Atractyloside Exposure: After 6 days of exposure to serum and NGF, cultures maintained in MEM with serum and NGF were treated for 24 hours with either vehicle (HBSS) as a control, or concentrations of C2-ceramide in HBSS varying from 2 to 50 μM, concentrations of rotenone in BSS varying from 2 to 50 nM, concentrations of H2O2 in HBSS varying from 0.01 to 0.25 mM H2O2 or concentrations of atractyloside in HBSS varying from 2 to 20 mM. Both cell survival and the percentages of cells with evidence of apoptotic nuclear degradation were assessed for all treatments. To estimate survival, the cells were seeded at a density of 8×10^4 cells/well in 24 well plates. Cells were harvested 24 hours after treatment and lysed. Intact nuclei were counted using a hemocytometer (see see (Tatton et al., 1994, J. Neurochemistry, 63:1572-1575; Wadia et al., J. Neuroscience, 1998, 18: 932-947; Carlile et al., 2000, Molecular Pharmacology, 57:2-12) for details of treatment and counting methods). The capacity of phosphatidic acid to increase survival, decrease apoptosis and maintain mitochondrial membrane potential was determined by counting intact nuclei as an indicator of cell survival, determining the percentages of cells with nuclear chromatin (DNA) condensation by staining cells with YOYO-1, a nucleic acid binding dye, and measuring mitochondrial potentiometric dye fluorescence by imaging them with florescence microscopy.

[2] = tested on: NGF differentiated PC12 cells; test: Mitochondrial membrane potential by potentiometric dye fluorescence (TMRM, CMTMR) in NGF differentiated PC12 cells; assay type: cell-based
Description: Live cell ΔψM measurement: Cells on polylysine coated coverglass were incubated with 100 nM tetramethylrodaminemethylester (TMRM, Molecular probes, Eugene, Oreg.) or 10 μg/ml JC-1 (Molecular Probes, Eugene, Oreg.) to provide an estimate of ΔψM. The coverslips were transferred to a gas and temperature controlled circulating live cell chamber (Medical Systems Corp., Greenvale, N.Y.). A thermocoupler immersed in the medium maintained the media temperature at 37±0.1° C. TMRM, JC-1 and chloromethyltetramethylrosamine (CMTMR, Molecular probes, Eugene, Oreg.) and JC-1 stained cells were imaged 10 minutes following dye addition and images were collected every 3 minutes for approximately 20 minutes.
Fixed cell ΔψM Measurement. After treatment of NGF differentiated PC12 cells on poly-L-lysine coated 12 mm coverslips, the fixable potentiometric dye, CMTMR, was added at 137 nM for 15 minutes at 37° C. and simultaneous immunocytochemistry was performed. The cells were then rinsed once with warm Dulbecco's PBS prior to overnight fixation with ice cold 4% paraformaldehyde in PB and mounted onto slides with the aqueous mounting medium, Aquamount (Gallard-Schlesinger Ind., Garden City, N.Y.).
Florescence Microscopy. Images were obtained using a Leica TCS4D confocal microscope coupled to an argon-krypton laser or a standard epi-floresence microscope. The images were scanned or imaged using an oil immersion 100×1.4 N.A. objective to minimize focal depth. CMTMR and TMRM treated cells were imaged using 568 nm excitation and detected with 600/30 nm band pass filter. The JC-1 incubated cells were imaged using 488 nm excitation and detected using 530/30 nm band pass and 590 nm long pass filters observed by separate detectors. Image resolution was 512×512×8 bits per pixel. […] To measure the intensity of mitochondrial potentiometric dye fluorescence, pixel intensity measurements from 20-40 mitochondria from each of 50-70 cells per treatment, per experiment were obtained by placing a 3×3 pixel box at 2 points in each mitochondrion. The fluorescence intensity values were automatically exported to an Excel spreadsheet for subsequent analysis in MicroCal Origin (Northampton, Mass.). […]
(§1) The capacity of phosphatidic acid to increase survival, decrease apoptosis and maintain mitochondrial membrane potential was determined by counting intact nuclei as an indicator of cell survival, determining the percentages of cells with nuclear chromatin (DNA) condensation by staining cells with YOYO-1, a nucleic acid binding dye, and measuring mitochondrial potentiometric dye fluorescence by imaging them with florescence microscopy.

[3] = tested on: NGF differentiated PC12 cells; test: Nuclei with chromatin condensation (YOYO-1 staining) in NGF differentiated PC12 cells; assay type: cell-based
Description: PC12 cells (ATCC, Manassas, Md.) were propagated in minimum essential medium (MEM) containing 10% horse serum, 5% fetal bovine serum, 2 mM L-glutamine, 50 units/ml penicillin, and 50 μg/ml streptomycin (MEM with serum, MIS), all purchased from Life Technologies (Rockville, Md.). The cells were grown on 24 well plates (8×10^4 cells/well) for counting of intact nuclei as an estimate of survival, poly-L-lysine treated coverslips (1×10^4 cells/coverslip) for imaging with epiflorescence microscopy or laser confocal scanning microscopy (LCSM) or 100 mm dishes (1×10^6 cells/plate) for protein chemistry. The cells were differentiated for 6 days in M/S supplemented with 100 ng/ml 7S NGF (Upstate Biotech., Lake Placid, N.Y.). MEM with serum and NGF is abbreviated as M/S+N (see (Tatton et al., 1994, J. Neurochemistry, 63:1572-1575; Wadia et al., J. Neuroscience, 1998, 18: 932-947; Carlile et al., 2000, Molecular Pharmacology, 57:2-12) for further details of culture and treatment). […]
(§2) Percentages of cells with apoptotic nuclei were determined for cells grown on poly-L-lysine treated coverslips (density 1×10^4/coverslip). […] The total number of YOYO-1 stained nuclei with chromatin condensation were counted on twenty-five 40× fields for each coverslip, each field chosen by pairs of randomly-generated x-y coordinates. The proportion of nuclei with chromatin condensation were expressed as a percentage of the total number of cells in each field. […]
as §1

[4] = tested on: cerebellar granule neurons; test: Nuclei with chromatin condensation (YOYO-1 staining) in cerebellar granule neurons after glutamate; assay type: cell-based, rat; settings: apoptosis initiating insult: Glutamate
Description: (§3) Cerebellar granule neurons were obtained from postnatal day 7 rat pups by enzymatic digestion and maintained in serum supplemented Eagle's Basal medium. Viable cells were plated at a density of 500,000 cells/ml onto poly-L-lysine coated tissue culture plastic or glass coverslips. Cytosine arabinoside (Ara-C) (10 μM) was added at 24 hours to halt glial proliferation. To induce apoptosis in the cerebellar granule neurons, 10^−4 to 10^−6 M glutamate was added on day 7 to the culture.
as §2, §1

[5] = tested on: cerebellar granule neurons; test: Survival of cerebellar granule neurons after glutamate (counting intact nuclei); assay type: cell-based, rat; settings: apoptosis initiating insult: Glutamate
Description: as §3
Both cell survival and the percentages of cells with evidence of apoptotic nuclear degradation were assessed for all treatments. […] Intact nuclei were counted using a hemocytometer (see see (Tatton et al., 1994, J. Neurochemistry, 63:1572-1575; Wadia et al., J. Neuroscience, 1998, 18: 932-947; Carlile et al., 2000, Molecular Pharmacology, 57:2-12) for details of treatment and counting methods).
as §1

[6] = apoptosis initiating insult: Serum and NGF Withdrawal

## phosphatidic acid [PA]
[1]; after exposure to 0.1 mM H2O2 which kills about 60% of the cells (FIG. 3C)
  increase of cell survival by varying concentrations of phosphatidic acid: does not substantially increase
[1]; apoptosis initiated by peroxide or atractyloside, 2 to 30 μM PA
  PA reduced apoptosis: not
[1]; apoptosis initiating insult: Atractyloside, 24 hours
  PA Increases Survival: No
[1]; apoptosis initiating insult: Ceramide (C2-ceramide), 24 hours
  PA Increases Survival: Yes - FIG. 2A
[1]; apoptosis initiating insult: Ceramide (C2-ceramide), 24 hours, listed as Phosphatidic acid
  PA Increases Survival: increase cell survival
[1]; apoptosis initiating insult: Peroxide (H2O2), 24 hours, listed as phosphatidic acid
  PA Increases Survival: does not alter survival
[1]; apoptosis initiating insult: Rotenone, 24 hours, listed as Phosphatidic acid
  PA Increases Survival: increase cell survival
[1]; [6]
  PA Increases Survival: Yes - FIG. 3B
[1]; apoptosis initiating insult: Serum and NGF Withdrawal, listed as Phosphatidic acid
  PA Increases Survival: increase cell survival
[2]; apoptosis initiating insult: Ceramide, dyes TMRM and CMTMR, listed as phosphatidic acid
  PA Reduces Decreases In Mitochondrial Membrane Potential: reduces
[2]; apoptosis initiating insult: Rotenone, dyes TMRM and CMTMR
  PA Reduces Decreases In Mitochondrial Membrane Potential: Yes - FIG. 4C
[2]; apoptosis initiating insult: Rotenone, dyes TMRM and CMTMR, listed as phosphatidic acid
  PA Reduces Decreases In Mitochondrial Membrane Potential: reduces
[2]; [6]
  PA Reduces Decreases In Mitochondrial Membrane Potential: Yes
[3]; apoptosis initiating insult: Ceramide
  PA Decreases Nuclei With Chromatin Condensation: Yes
[3]; apoptosis initiating insult: Rotenone
  PA Decreases Nuclei With Chromatin Condensation: Yes
[3]; [6]
  PA Decreases Nuclei With Chromatin Condensation: Yes
[4]
  PA Decreases Nuclei With Chromatin Condensation: Yes
[5]
  PA Increases Survival: Yes
[5]; listed as Phosphatidic acid
  PA Increases Survival: increase cell survival
